Assay results as given in US20250368651A1 (priority 2022, published 2025).

Legend:
[1] = target: DNA Seq6 (UGAAGGAAGGU as deoxyribonucleotides); experiment: FP binding assay, DNA Seq6
Method: (§1) All synthetic DNA and RNA oligomers were purchased from Integrated DNA Technologies and reconstituted in nuclease-free water (Invitrogen #AM9932) at 1 mM. The concentration of the oligonucleotides at ˜0.1 mM was calibrated with the A260 value measured by a NanoDrop ND-1000 (Thermo, Waltham, MA, USA) and the predicted extinction coefficient (http://www.oligoevaluator.com) using Lamber-Beer's Law. The risdiplam analogues (1 mM in DMSO) were diluted in 2× assay buffer (40 mM HEPES, 200 mM NaCl for RNA; 40 mM HEPES, 200 mM NaCl, 1 mM MgCl2 for DNA) to make a 1 μM 2× working solution.
(§2) A 1:2 dilution series (8 points) of each oligonucleotide was prepared in 20-30 μL water to desired concentrations (i.e., 1-128 μM). 20-30 μL 2× working solution containing the 2× assay buffer and the small-molecule ligand was added to each oligonucleotide sample in 1:1 (v/v) and mixed by pipetting for 4 times. For fluorescence polarization measurement, 20 μL of the above 1× working solution was transferred into a 384-well, black, F-bottom microplates (Greiner Bio-One) in duplicates or triplicates. The plate was equilibrated at room temperature for 5 min before being read using a microplate reader (SYNERGY H1, BioTek; Excitation/Emission=360/460 nm) at 25° C. For compound SMN-C5, a competitive binding assay was employed to measure an apparent Kd. SMN-C5 was 1:2 serial diluted for 10 concentration points starting at 750 μM in DMSO. A mixture of SMN-C2 (0.5 μM) and DNA Seq6 (25 μM) in 1× assay buffer was prepared and incubated at room temperature for 10 minutes. 3 μL of SMN-C5 solution at each concentration was added to a 42 μL SMN-C2/DNA Seq6 mixture and incubated at room temperature for 10 minutes. The mixture was then transferred into a microplate (20 μL each well) in duplicates for fluorescence polarization readout. The experimental data were analyzed using Prism 8 software (Graphpad Software, San Diego, CA, USA).

DNA Seq9 TTAAGGAAGTT = experiment: FP binding assay, DNA Seq9; settings: Seq 9 TTAAGGAAGTT; 0.5 μM SMN-C2
Method: as §1
(§3) A 1:2 dilution series (8 points) of each oligonucleotide was prepared in 20-30 μL water to desired concentrations (i.e., 1-128 μM). […] For fluorescence polarization measurement, 20 μL of the above 1× working solution was transferred into a 384-well, black, F-bottom microplates (Greiner Bio-One) in duplicates or triplicates. The plate was equilibrated at room temperature for 5 min before being read using a microplate reader (SYNERGY H1, BioTek; Excitation/Emission=360/460 nm) at 25° C. […] The mixture was then transferred into a microplate (20 μL each well) in duplicates for fluorescence polarization readout. The experimental data were analyzed using Prism 8 software (Graphpad Software, San Diego, CA, USA).

RNA Seq10 UAAAGGAAGGU = experiment: FP binding assay, RNA Seq10; settings: Seq 10 UAAAGGAAGGU; 0.5 μM SMN-C2
Method: as §1, §3

DNA Seq11 TGGAGGAAGGT = experiment: FP binding assay, DNA Seq11; settings: Seq 11 TGGAGGAAGGT; 0.5 μM SMN-C2
Method: as §1, §3

DNA Seq12 TGAAAGAAGGT = experiment: FP binding assay, DNA Seq12; settings: Seq 12 TGAAAGAAGGT; 0.5 μM SMN-C2
Method: as §1, §3

[2] = target: DNA Seq13 (UGAAGAAAGGU as deoxyribonucleotides); experiment: FP binding assay, DNA Seq13; settings: Seq 13; 0.5 μM SMN-C2
Method: as §1, §3

DNA Seq15 TGAAGGATGGT = experiment: FP binding assay, DNA Seq15; settings: Seq 15 TGAAGGATGGT; 0.5 μM SMN-C2
Method: as §1, §3

DNA Seq17 TGAAGGAAGAT = experiment: FP binding assay, DNA Seq17; settings: Seq 17 TGAAGGAAGAT; 0.5 μM SMN-C2
Method: as §1, §3

DNA Seq2 d(GAAGGAAGG) = experiment: FP binding assay, 9-nt DNA Seq2
Method: as §1, §3

DNA S26 d(TGAAGGAAGG) = experiment: FP binding assay, 10-nt DNA S26
Method: as §1, §3

DNA S1 […] = experiment: FP binding assay, 18-nt DNA S1; settings: range = 95% CI
Method: as §1, §3

DNA S2 […] = experiment: FP binding assay, 18-nt DNA S2
Method: as §1, §3

DNA S7 […] = experiment: FP binding assay, 18-nt DNA S7
Method: as §1, §3

DNA S9 […] = experiment: FP binding assay, 18-nt DNA S9
Method: as §1, §3

DNA S10 […] = experiment: FP binding assay, 18-nt DNA S10
Method: as §1, §3

DNA S14 […] = experiment: FP binding assay, 18-nt DNA S14
Method: as §1, §3

DNA S17 […] = experiment: FP binding assay, 18-nt DNA S17
Method: as §1, §3

DNA S19 […] = experiment: FP binding assay, 18-nt DNA S19
Method: as §1, §3

DNA S25 […] = experiment: FP binding assay, 18-nt DNA S25
Method: as §1, §3

RNA Seq4 […] = experiment: FP binding assay, RNA Seq4
Method: as §1, §2

DNA Seq6 = experiment: Isothermal titration calorimetry (ITC), DNA Seq6; format: binding; settings: SMN-C2 250 μM into DNA Seq6 25 μM; MES buffer, 5% DMSO, 100 mM NaCl
Method: Excess amount of SMN-C2 was eluted at retention volume ˜21 mL. The figures are the representation of three independent experiments.
Isothermal calorimetric titrations were carried out on a Malvern Analytical MicroCal PEAQ-ITC at 25° C. The DNA (see above for the calibration procedure) and the SMN-C2 water solutions containing the desired amount of the materials were freeze-dried overnight (Labconco FreeZone 4.5 Liter Benchtop Freeze Dry System) and then re-suspended in appropriate volume of buffer containing 5% DMSO, 100 mM NaCl and 30 mM MES buffer at pH 6.0 (e.g., 350 μL for DNA Seq6, 80 μL for SMN-C2). […] The analysis was performed using the instrument's MicroCal PEAQ-ITC Analysis Software (Malvern Analytical). The ITC data was fit using the One Set of Sites mode to calculate the dissociate constant (Kd), binding stoichiometry, and the changes in enthalpy and Gibbs free energy. In differential power (DP) trace, the baseline was subtracted for better visualization, which has no impact on calculations.

[3] = target: COVID RNA (SARS-CoV-2 RNA SL5 per FIG. 8); experiment: FP binding, Kd for COVID RNA; settings: Table 3
in vitro = settings: human

CCN1CCN(c2ccc3cc(-c4cn5cc(C)nc(C)c5n4)c(=O)oc3c2)C[C@@H]1C [SMN-C2, (S)-3-(6,8-dimethylimidazo[1,2-a]pyrazin-2-yl)-7-(4-ethyl-3-methylpiperazin-1-yl)-2H-chromen-2-one]
Kd ([1]; Seq 6, 0.5 μM SMN-C2, range = 95% CI, read-out: DNA Kd): 3.1 ± 0.7 µM | decrease in binding affinity by any single-point mutation of the core sequence ([1]; Seq10-17 vs Seq6): ≥ 5 fold | Kd (DNA Seq9 TTAAGGAAGTT): > 100 µM | Kd (RNA Seq10 UAAAGGAAGGU): > 100 µM | Kd (DNA Seq11 TGGAGGAAGGT): 57.3 ± 20 µM | Kd (DNA Seq12 TGAAAGAAGGT): 17.6 ± 3.4 µM | Kd [2]: > 100 µM | Kd (DNA Seq15 TGAAGGATGGT): 41.1 ± 4.4 µM | Kd (DNA Seq17 TGAAGGAAGAT): 56.4 ± 10.4 µM | Kd (DNA Seq2 d(GAAGGAAGG)): 34.3 ± 9.6 µM | Kd (DNA S26 d(TGAAGGAAGG)): 6.2 ± 1 µM | Kd (DNA S1 […]): 15.3 ± 0.6 µM | Kd (DNA S2 […]): 20.2 ± 1.7 µM | Kd (DNA S7 […]): 17.3 ± 1.7 µM | Kd (DNA S9 […]): 56.2 ± 13.9 µM | Kd (DNA S10 […]): 26.4 ± 2.2 µM | Kd (DNA S14 […]): 19.5 ± 2.3 µM | Kd (DNA S17 […]): 16.5 ± 1.1 µM | Kd (DNA S19 […]): 21 ± 1.1 µM | Kd (DNA S25 […]): 48 ± 7.8 µM | Kd (RNA Seq4 […]): 21.7 ± 4.3 µM | Kd (DNA Seq6): 4.8 µM | Kd [3]: 1.6 ± 0.4 µM | CC50 (in vitro): > 30 µM
